Measurements from ChEMBL document CHEMBL1806489, “Synthesis and biological evaluation of novel F-18 labeled pyrazolo[1,5-a]pyrimidine derivatives: potential PET imaging agents for tumor detection” (Bioorg Med Chem Lett, 2011).

Tests used:
[1] = test system: Mus musculus; experiment: Biodistribution in mouse S180 cells xenografted Kunming mouse tumor at 370 kBq/0.1 mL, iv after 30 mins by gamma counting; assay type: ADME, organism-based, Neoplasm, CCRF S-180; conditions: in vivo, 0.5 h
[2] = test system: Liver; experiment: Biodistribution in mouse S180 cells xenografted Kunming mouse liver at 370 kBq/0.1 mL, iv after 15 mins by gamma counting; assay type: ADME, organism-based, CCRF S-180; conditions: in vivo, 0.25 h
[3] = test system: Kidney; experiment: Biodistribution in mouse S180 cells xenografted Kunming mouse kidney at 370 kBq/0.1 mL, iv after 120 mins by gamma counting; assay type: ADME, organism-based, CCRF S-180; conditions: in vivo, 2 h
[4] = test system: Kidney; experiment: Biodistribution in mouse S180 cells xenografted Kunming mouse kidney at 370 kBq/0.1 mL, iv after 60 mins by gamma counting; assay type: ADME, organism-based, CCRF S-180; conditions: in vivo, 1 h
[5] = test system: Heart; experiment: Biodistribution in mouse S180 cells xenografted Kunming mouse heart at 370 kBq/0.1 mL, iv after 60 mins by gamma counting; assay type: ADME, organism-based, CCRF S-180; conditions: in vivo, 1 h
[6] = test system: Muscle tissue; experiment: Biodistribution in mouse S180 cells xenografted Kunming mouse muscle at 370 kBq/0.1 mL, iv after 120 mins by gamma counting; assay type: ADME, organism-based, CCRF S-180; conditions: in vivo, 2 h
[7] = test system: Liver; experiment: Biodistribution in mouse S180 cells xenografted Kunming mouse liver at 370 kBq/0.1 mL, iv after 120 mins by gamma counting; assay type: ADME, organism-based, CCRF S-180; conditions: in vivo, 2 h
[8] = test system: Muscle tissue; experiment: Biodistribution in mouse S180 cells xenografted Kunming mouse muscle at 370 kBq/0.1 mL, iv after 15 mins by gamma counting; assay type: ADME, organism-based, CCRF S-180; conditions: in vivo, 0.25 h
[9] = test system: Nucleic Acid; experiment: Ratio of drug level in tumor to muscle in mouse S180 cells xenografted Kunming mouse at 370 kBq/0.1 mL, iv after 30 mins by gamma counting; assay type: ADME, organism-based, CCRF S-180; conditions: in vivo, 0.5 h
[10] = test system: Nucleic Acid; experiment: Ratio of drug level in tumor to muscle in mouse S180 cells xenografted Kunming mouse at 370 kBq/0.1 mL, iv after 60 mins by gamma counting; assay type: ADME, organism-based, CCRF S-180; conditions: in vivo, 1 h
[11] = test system: Liver; experiment: Biodistribution in mouse S180 cells xenografted Kunming mouse liver at 370 kBq/0.1 mL, iv after 60 mins by gamma counting; assay type: ADME, organism-based, CCRF S-180; conditions: in vivo, 1 h
[12] = test system: Blood; experiment: Biodistribution in mouse S180 cells xenografted Kunming mouse blood at 370 kBq/0.1 mL, iv after 60 mins by gamma counting; assay type: ADME, organism-based, CCRF S-180; conditions: in vivo, 1 h
[13] = test system: Spleen; experiment: Biodistribution in mouse S180 cells xenografted Kunming mouse spleen at 370 kBq/0.1 mL, iv after 60 mins by gamma counting; assay type: ADME, organism-based, CCRF S-180; conditions: in vivo, 1 h
[14] = test system: Mus musculus; experiment: Biodistribution in mouse S180 cells xenografted Kunming mouse tumor at 370 kBq/0.1 mL, iv after 5 mins by gamma counting; assay type: ADME, organism-based, Neoplasm, CCRF S-180; conditions: in vivo
[15] = test system: Blood; experiment: Biodistribution in mouse S180 cells xenografted Kunming mouse blood at 370 kBq/0.1 mL, iv after 30 mins by gamma counting; assay type: ADME, organism-based, CCRF S-180; conditions: in vivo, 0.5 h
[16] = test system: Brain; experiment: Biodistribution in mouse S180 cells xenografted Kunming mouse brain at 370 kBq/0.1 mL, iv after 30 mins by gamma counting; assay type: ADME, organism-based, CCRF S-180; conditions: in vivo, 0.5 h
[17] = test system: Heart; experiment: Biodistribution in mouse S180 cells xenografted Kunming mouse heart at 370 kBq/0.1 mL, iv after 5 mins by gamma counting; assay type: ADME, organism-based, CCRF S-180; conditions: in vivo
[18] = test system: Lung; experiment: Biodistribution in mouse S180 cells xenografted Kunming mouse lung at 370 kBq/0.1 mL, iv after 5 mins by gamma counting; assay type: ADME, organism-based, CCRF S-180; conditions: in vivo
[19] = test system: Nucleic Acid; experiment: Ratio of drug level in tumor to blood in mouse S180 cells xenografted Kunming mouse at 370 kBq/0.1 mL, iv after 60 mins by gamma counting; assay type: ADME, organism-based, CCRF S-180; conditions: tumour, 1 h
[20] = test system: Kidney; experiment: Biodistribution in mouse S180 cells xenografted Kunming mouse kidney at 370 kBq/0.1 mL, iv after 30 mins by gamma counting; assay type: ADME, organism-based, CCRF S-180; conditions: in vivo, 0.5 h
[21] = test system: Brain; experiment: Biodistribution in mouse S180 cells xenografted Kunming mouse brain at 370 kBq/0.1 mL, iv after 5 mins by gamma counting; assay type: ADME, organism-based, CCRF S-180; conditions: in vivo
[22] = test system: Heart; experiment: Biodistribution in mouse S180 cells xenografted Kunming mouse heart at 370 kBq/0.1 mL, iv after 15 mins by gamma counting; assay type: ADME, organism-based, CCRF S-180; conditions: in vivo, 0.25 h
[23] = test system: Nucleic Acid; experiment: Ratio of drug level in tumor to blood in mouse S180 cells xenografted Kunming mouse at 370 kBq/0.1 mL, iv after 15 mins by gamma counting; assay type: ADME, organism-based, CCRF S-180; conditions: tumour, 0.25 h
[24] = test system: Muscle tissue; experiment: Biodistribution in mouse S180 cells xenografted Kunming mouse muscle at 370 kBq/0.1 mL, iv after 5 mins by gamma counting; assay type: ADME, organism-based, CCRF S-180; conditions: in vivo
[25] = test system: Nucleic Acid; experiment: Ratio of drug level in tumor to brain in mouse S180 cells xenografted Kunming mouse at 370 kBq/0.1 mL, iv after 5 mins by gamma counting; assay type: ADME, organism-based, CCRF S-180; conditions: in vivo
[26] = test system: Kidney; experiment: Biodistribution in mouse S180 cells xenografted Kunming mouse kidney at 370 kBq/0.1 mL, iv after 15 mins by gamma counting; assay type: ADME, organism-based, CCRF S-180; conditions: in vivo, 0.25 h
[27] = test system: Muscle tissue; experiment: Biodistribution in mouse S180 cells xenografted Kunming mouse muscle at 370 kBq/0.1 mL, iv after 60 mins by gamma counting; assay type: ADME, organism-based, CCRF S-180; conditions: in vivo, 1 h
[28] = test system: Liver; experiment: Biodistribution in mouse S180 cells xenografted Kunming mouse liver at 370 kBq/0.1 mL, iv after 30 mins by gamma counting; assay type: ADME, organism-based, CCRF S-180; conditions: in vivo, 0.5 h
[29] = test system: CCRF S-180; experiment: Cellular uptake in mouse S180 cells after 60 mins; assay type: ADME, cell-based; conditions: ccrf s-180, 1 h
[30] = test system: Blood; experiment: Biodistribution in mouse S180 cells xenografted Kunming mouse blood at 370 kBq/0.1 mL, iv after 15 mins by gamma counting; assay type: ADME, organism-based, CCRF S-180; conditions: in vivo, 0.25 h
[31] = test system: Nucleic Acid; experiment: Ratio of drug level in tumor to muscle in mouse S180 cells xenografted Kunming mouse at 370 kBq/0.1 mL, iv after 5 mins by gamma counting; assay type: ADME, organism-based, CCRF S-180; conditions: in vivo
[32] = test system: Brain; experiment: Biodistribution in mouse S180 cells xenografted Kunming mouse brain at 370 kBq/0.1 mL, iv after 60 mins by gamma counting; assay type: ADME, organism-based, CCRF S-180; conditions: in vivo, 1 h
[33] = test system: Heart; experiment: Biodistribution in mouse S180 cells xenografted Kunming mouse heart at 370 kBq/0.1 mL, iv after 120 mins by gamma counting; assay type: ADME, organism-based, CCRF S-180; conditions: in vivo, 2 h
[34] = test system: CCRF S-180; experiment: Cellular uptake in mouse S180 cells relative to [18F]FDG; assay type: ADME, cell-based
[35] = test system: Mus musculus; experiment: Biodistribution in mouse S180 cells xenografted Kunming mouse tumor at 370 kBq/0.1 mL, iv after 120 mins by gamma counting; assay type: ADME, organism-based, Neoplasm, CCRF S-180; conditions: in vivo, 2 h
[36] = test system: Liver; experiment: Biodistribution in mouse S180 cells xenografted Kunming mouse liver at 370 kBq/0.1 mL, iv after 5 mins by gamma counting; assay type: ADME, organism-based, CCRF S-180; conditions: in vivo
[37] = test system: Mus musculus; experiment: Biodistribution in mouse S180 cells xenografted Kunming mouse tumor at 370 kBq/0.1 mL, iv after 15 mins by gamma counting; assay type: ADME, organism-based, Neoplasm, CCRF S-180; conditions: in vivo, 0.25 h
[38] = test system: Lung; experiment: Biodistribution in mouse S180 cells xenografted Kunming mouse lung at 370 kBq/0.1 mL, iv after 15 mins by gamma counting; assay type: ADME, organism-based, CCRF S-180; conditions: in vivo, 0.25 h
[39] = test system: Brain; experiment: Biodistribution in mouse S180 cells xenografted Kunming mouse brain at 370 kBq/0.1 mL, iv after 15 mins by gamma counting; assay type: ADME, organism-based, CCRF S-180; conditions: in vivo, 0.25 h
[40] = test system: Nucleic Acid; experiment: Ratio of drug level in tumor to blood in mouse S180 cells xenografted Kunming mouse at 370 kBq/0.1 mL, iv after 30 mins by gamma counting; assay type: ADME, organism-based, CCRF S-180; conditions: tumour, 0.5 h
[41] = test system: Nucleic Acid; experiment: Ratio of drug level in tumor to brain in mouse S180 cells xenografted Kunming mouse at 370 kBq/0.1 mL, iv after 15 mins by gamma counting; assay type: ADME, organism-based, CCRF S-180; conditions: in vivo, 0.25 h
[42] = test system: Muscle tissue; experiment: Biodistribution in mouse S180 cells xenografted Kunming mouse muscle at 370 kBq/0.1 mL, iv after 30 mins by gamma counting; assay type: ADME, organism-based, CCRF S-180; conditions: in vivo, 0.5 h
[43] = test system: Lung; experiment: Biodistribution in mouse S180 cells xenografted Kunming mouse lung at 370 kBq/0.1 mL, iv after 30 mins by gamma counting; assay type: ADME, organism-based, CCRF S-180; conditions: in vivo, 0.5 h

Compound `Cc1cc(NCCNC(=O)c2ccc([N+](=O)[O-])cc2[18F])n2ncc(C#N)c2n1` has a Drug uptake [1] of 1.24 % ID/g, a Drug uptake [2] of 10.12 % ID/g and a Drug uptake [3] of 0.74 % ID/g. It also gave a Drug uptake [4] of 1.83 % ID/g, a Drug uptake [5] of 0.63 % ID/g and a Drug uptake [6] of 0.28 % ID/g. The Drug uptake [7] was 2.05 % ID/g, the Drug uptake [8] was 2.07 % ID/g and the Ratio [9] was 1.4. It also gave a Ratio [10] of 1.57, a Drug uptake [11] of 4.07 % ID/g and a Drug uptake [12] of 0.45 % ID/g. The Drug uptake [13] was 0.53 % ID/g, the Drug uptake [14] was 2.26 % ID/g and the Drug uptake [15] was 1.42 % ID/g. For the same compound, the Drug uptake [16] was 0.12 % ID/g, the Drug uptake [17] was 5.77 % ID/g and the Drug uptake [18] was 5.6 % ID/g. The Ratio [19] was 1.66, the Drug uptake [20] was 5.63 % ID/g and the Drug uptake [21] was 0.38 % ID/g. The Drug uptake [22] was 2.78 % ID/g, the Ratio [23] was 0.8 and the Drug uptake [24] was 3.82 % ID/g. For the same compound, the Ratio [25] was 5.87, the Drug uptake [26] was 8.45 % ID/g and the Drug uptake [27] was 0.47 % ID/g. For the same compound, the Drug uptake [28] was 7.3 % ID/g, the Drug uptake [29] was 9% and the Drug uptake [30] was 2.5 % ID/g. It also gave a Ratio [31] of 0.59, a Drug uptake [32] of 0.08 % ID/g and a Drug uptake [33] of 0.12 % ID/g. It also gave a Drug uptake [34] of less than 7%, a Drug uptake [35] of 0.21 % ID/g and a Drug uptake [36] of 17.9 % ID/g. The Drug uptake [37] was 1.99 % ID/g, the Drug uptake [38] was 2.6 % ID/g and the Drug uptake [39] was 0.16 % ID/g. The Ratio [40] was 0.88, the Ratio [41] was 12.35 and the Drug uptake [42] was 0.89 % ID/g. For the same compound, the Drug uptake [43] was 1.19 % ID/g.
